Measured values: patent publication US11413360B2, “Dual mode radiotracer and—therapeutics” (priority 2017, dated 2022)
Where two headings read alike, the source gives them in different places.

What was measured:
[1] = target: Human Serum Albumin (Homo sapiens, UniProt P02768); assay: HSA binding on Chiralpak HSA column; format: in vitro ADME
Procedure: The mobile phase (A: NH4OAc, 50 mM in water, pH 7 and B: isopropanol) was freshly prepared for each experiment and only used for one day. The column was kept at room temperature and each run was stopped after detection of the signal to reduce the acquisition time. All substances were dissolved in a 0.5 mg/ml concentration in 50% 2-propanol and 50% 50 mM pH 6.9 ammonium acetate buffer. […] All nine reference substances (see Table 1) were injected consecutively to establish a non-linear regression with OriginPro 2016G; see FIG. 1.

[2] = target: T1, PSMA (Homo sapiens, UniProt Q04609); assay: Determination of PSMA affinity (IC50), competition with ([125I]I-BA)KuE on LNCaP cells; format: binding; conditions: ([125I]I-BA)KuE 0.2 nM, 1 h, 4° C., mean ± SD, read-out: IC50
T1 construct: endogenous in cells; host or cells: LNCaP cells
Procedure: After removal of the culture medium, the cells were treated once with 500 μL of HBSS (Hank's balanced salt solution, Biochrom, Berlin, Germany, with addition of 1% bovine serum albumin (BSA)) and left 15 min on ice for equilibration in 200 μL HBSS (1% BSA). […] Quantification of bound and free radioligand was accomplished in a γ-counter.

[3] = Octanol-water partition coefficient (log D) of radiolabelled ligands; format: physicochemical; conditions: n-octanol/PBS, n = 6
Procedure: Approximately 1 MBq of the labelled tracer was dissolved in 1 mL of a 1:1 mixture (by volumes) of phosphate buffered saline (PBS, pH 7.4) and n-octanol in an Eppendorf tube. After vigorous mixing of the suspension for 3 minutes at room temperature, the vial was centrifuged at 15000 g for 3 minutes (Biofuge 15, Heraus Sepatech, Osterode, Germany) and 100 μL aliquots of both layers were measured in a gamma counter. The experiment was repeated at least six times.

[4] = in vivo
[5] = tested on: prostate cancer tumor lesions; assay: Human PET uptake in and detection of prostate cancer tumor lesions with 18F-labelled PSMA-SIFA3 (7); format: in vivo
Excerpt: Gluteal muscle served as background.

[6] = tested on: recurrent prostate cancer; assay: PET/MR with 68Ga-labelled PSMA-SIFA3 (7) in one subject; format: in vivo, human; conditions: 144 MBq, PET/MR 66 min after injection, one subject with biochemical recurrence
Procedure: As a proof on concept investigation of a ^68Ga-labelled SiFA substituted chelator-based PET tracers one subject with biochemical recurrence after radical prostatectomy (PSA 0.44 ng/ml, pT2c, pNO, Gleason 7b) underwent PET/MR 66 min after injection of 144 MBq ^68Ga-labelled PSMA-SIFA3 (7).

[7] = tested on: LNCaP cells; assay: Internalization of radiolabelled ligands into LNCaP cells; format: cell-based
Procedure: Subsequent to the removal of the culture medium, the cells were washed once with 500 μL DMEM-F12 (5% BSA) and left to equilibrate for at least 15 min at 37° C. in 200 μL DMEM-F12 (5% BSA). Each well was treated with either 25 μL of either DMEM-F12 (5% BSA) or a 100 μM PMPA solution for blockade. […] The experiment was terminated by placing the 24-well plate on ice for 3 min and consecutive removal of the medium. Each well was rinsed with 250 μL HBSS and the fractions from these first two steps combined, representing the amount of free radioligand. Removal of surface bound activity was accomplished by incubation of the cells with 250 μL of ice-cold PMPA (10 μM in PBS) solution for 5 min and rinsed again with another 250 μL of ice-cold PBS. The internalized activity was determined by incubation of the cells in 250 μL 1 M NaOH and the combination with the fraction of a subsequent wash step with 250 μL 1.0 M NaOH. Each experiment (control and blockade) was performed in triplicate. Free, surface bound and internalized activity was quantified in a γ-counter. […] Data were corrected for non-specific internalization and normalized to the specific-internalization observed for the radioiodinated reference compound.

[8] = 18F-labelled, of 72 lesions analysed
[9] = 35 lesions with no correlate or small size on morphological imaging, 18F-labelled, human PET
[10] = bone metastases (n=21), 18F-labelled, human PET
[11] = local tumor (n=24), 18F-labelled, human PET
[12] = lymph node metastases (n=23), 18F-labelled, human PET
[13] = tumor lesions, 18F-labelled, human PET, n = 72
[14] = visceral metastases (n=4), 18F-labelled, human PET

T1 sequence (Q04609 whole entry): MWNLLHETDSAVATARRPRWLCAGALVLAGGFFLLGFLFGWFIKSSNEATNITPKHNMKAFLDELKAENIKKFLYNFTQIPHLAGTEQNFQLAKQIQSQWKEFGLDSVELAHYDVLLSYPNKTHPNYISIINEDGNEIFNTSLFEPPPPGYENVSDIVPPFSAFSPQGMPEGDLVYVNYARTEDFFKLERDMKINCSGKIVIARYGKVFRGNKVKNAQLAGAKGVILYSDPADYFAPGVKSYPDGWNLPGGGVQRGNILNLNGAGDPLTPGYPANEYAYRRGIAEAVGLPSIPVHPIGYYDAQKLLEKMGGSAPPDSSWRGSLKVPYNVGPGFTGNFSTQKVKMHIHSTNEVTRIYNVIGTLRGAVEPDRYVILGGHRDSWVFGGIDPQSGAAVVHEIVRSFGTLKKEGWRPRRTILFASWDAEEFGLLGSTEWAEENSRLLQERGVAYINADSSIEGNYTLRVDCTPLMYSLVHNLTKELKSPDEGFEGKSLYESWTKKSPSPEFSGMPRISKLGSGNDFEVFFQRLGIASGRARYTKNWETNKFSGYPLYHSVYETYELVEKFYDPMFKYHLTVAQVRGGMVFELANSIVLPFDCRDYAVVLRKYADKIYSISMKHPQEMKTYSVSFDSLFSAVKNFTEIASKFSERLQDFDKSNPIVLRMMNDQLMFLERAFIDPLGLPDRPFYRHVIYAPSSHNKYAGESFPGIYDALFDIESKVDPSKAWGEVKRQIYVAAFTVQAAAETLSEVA
Human Serum Albumin, sequence (P02768 25-609): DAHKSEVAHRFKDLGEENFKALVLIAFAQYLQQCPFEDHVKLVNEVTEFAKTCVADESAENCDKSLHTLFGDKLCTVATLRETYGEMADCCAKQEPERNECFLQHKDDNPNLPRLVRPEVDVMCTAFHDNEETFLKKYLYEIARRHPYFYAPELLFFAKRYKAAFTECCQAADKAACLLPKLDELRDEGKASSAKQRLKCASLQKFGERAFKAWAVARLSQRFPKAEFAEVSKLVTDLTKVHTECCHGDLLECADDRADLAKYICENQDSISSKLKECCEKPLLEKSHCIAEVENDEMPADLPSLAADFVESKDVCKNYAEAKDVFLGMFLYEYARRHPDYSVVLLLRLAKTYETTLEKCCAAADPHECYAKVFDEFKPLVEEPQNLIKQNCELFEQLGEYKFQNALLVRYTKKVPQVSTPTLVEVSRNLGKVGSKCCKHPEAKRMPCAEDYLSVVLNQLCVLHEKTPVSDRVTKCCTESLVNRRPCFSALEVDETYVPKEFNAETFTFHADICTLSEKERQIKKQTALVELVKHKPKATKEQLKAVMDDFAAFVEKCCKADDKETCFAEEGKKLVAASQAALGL

Question: With `CC(C)(C)[Si](F)(c1ccc(C(=O)NC[C@@H](NC(=O)CCC(C(=O)O)N2CCN(CC(=O)O)CCN(CC(=O)O)CCN(CC(=O)O)CC2)C(=O)N[C@H](CCCCNC(=O)CCC(=O)NCCC[C@@H](NC(=O)CC[C@H](NC(=O)N[C@@H](CCC(=O)O)C(=O)O)C(=O)O)C(=O)O)C(=O)O)cc1)C(C)(C)C` (some centres unmarked) [ligand 7, PSMA-SIFA3] as the compound, how does the HSA binding ([1]; natGa-natF-L) read?
Answer: The HSA binding was 95.7%.

Question: And the HSA binding ([1]; natLu-natF-L)?
Answer: The HSA binding was 97.7%.

Question: What about the IC50 ([2]; natF-L (uncomplexed)) of the same compound?
Answer: Its IC50 is 3.5 ± 0.2 nM.

Question: And the IC50 ([2]; natGa-natF-L)?
Answer: The IC50 was 3 ± 0.7 nM.

Question: What about the IC50 ([2]; natLu-natF-L) of the same compound?
Answer: Its IC50 is 3.9 ± 0.5 nM.

Question: What about the logD ([3]; pH 7.4, 18F-L) of the same compound?
Answer: The logD was -1.98 ± 0.04.

Question: And the logD ([3]; pH 7.4, 68Ga-natF-L)?
Answer: The logD was -3.18 ± 0.05.

Question: What about the logD ([3]; pH 7.4, 177Lu-natF-L) of the same compound?
Answer: Its logD is -4.2 ± 0.09.

Question: What about the “adverse events / clinically detectable pharmacological effects” value [4] of the same compound?
Answer: Its value is “No adverse events or clinically detectable pharmacological effects were noted”.

Question: What about the SUVmax max [5] of the same compound?
Answer: Its SUVmax max is 25.

Question: What about the SUVmean max [5] of the same compound?
Answer: Its SUVmean max is 28.3.

Question: What about the “ratio SUVmax to background max” value [5] of the same compound?
Answer: Its value is 43.8.

Question: And the “ratio SUVmean to background max” value [5]?
Answer: The value was 56.6.

Question: What about the “patients in whom lesions indicative for prostate cancer were detected” value ([5]; 18F-labelled, 53 subjects imaged (primary staging n=6, recurrent disease n=47)) of the same compound?
Answer: Its value is 39 patients.

Question: What about the “lesions with no correlate on morphological imaging” value [5, 8] of the same compound?
Answer: Its value is 21 lesions.

Question: What about the “lesions with size of equal or less than 5 mm on morphological imaging” value [5, 8] of the same compound?
Answer: Its value is 14 lesions.

Question: What about the “uptake in prostate cancer lesions (individual patient images)” value ([5]; 18F-labelled, single patients, FIG. 26 and FIG. 27) of the same compound?
Answer: The value was “high uptake”.

Question: What about the SUVmax mean [5, 9] of the same compound?
Answer: Its SUVmax mean is 16.7.

Question: And the SUVmax min [5, 9]?
Answer: The SUVmax min was 9.2.

Question: What about the SUVmean mean [5, 9] of the same compound?
Answer: Its SUVmean mean is 13.3.

Question: What about the SUVmean min [5, 9] of the same compound?
Answer: The SUVmean min was 6.4.

Question: And the “ratio SUVmax to background mean” value [5, 9]?
Answer: Its value is 18.3.

Question: What about the “ratio SUVmax to background min” value [5, 9] of the same compound?
Answer: The value was 5.8.

Question: And the “ratio SUVmean to background mean” value [5, 9]?
Answer: The value was 22.9.

Question: What about the “ratio SUVmean to background min” value [5, 9] of the same compound?
Answer: The value was 7.1.

Question: What about the SUVmax max [5, 10] of the same compound?
Answer: Its SUVmax max is 95.4.

Question: What about the SUVmax mean [5, 10] of the same compound?
Answer: Its SUVmax mean is 31.2.

Question: And the SUVmax min [5, 10]?
Answer: The SUVmax min was 7.9.

Question: What about the SUVmean max [5, 10] of the same compound?
Answer: Its SUVmean max is 71.7.

Question: And the SUVmean mean [5, 10]?
Answer: The SUVmean mean was 22.2.

Question: And the SUVmean min [5, 10]?
Answer: The SUVmean min was 5.3.

Question: And the “ratio SUVmax to background max” value [5, 10]?
Answer: Its value is 73.4.

Question: And the “ratio SUVmax to background mean” value [5, 10]?
Answer: Its value is 32.8.

Question: And the “ratio SUVmax to background min” value [5, 10]?
Answer: The value was 7.9.

Question: What about the “ratio SUVmean to background max” value [5, 10] of the same compound?
Answer: The value was 80.

Question: And the “ratio SUVmean to background mean” value [5, 10]?
Answer: The value was 36.6.

Question: And the “ratio SUVmean to background min” value [5, 10]?
Answer: The value was 8.8.

Question: What about the SUVmax max [5, 11] of the same compound?
Answer: The SUVmax max was 75.1.

Question: What about the SUVmax mean [5, 11] of the same compound?
Answer: The SUVmax mean was 26.9.

Question: What about the SUVmax min [5, 11] of the same compound?
Answer: Its SUVmax min is 4.

Question: What about the SUVmean max [5, 11] of the same compound?
Answer: The SUVmean max was 19.3.

Question: What about the SUVmean mean [5, 11] of the same compound?
Answer: Its SUVmean mean is 19.3.

Question: And the SUVmean min [5, 11]?
Answer: The SUVmean min was 2.7.

Question: And the “ratio SUVmax to background max” value [5, 11]?
Answer: The value was 83.4.

Question: And the “ratio SUVmax to background mean” value [5, 11]?
Answer: The value was 29.6.

Question: And the “ratio SUVmax to background min” value [5, 11]?
Answer: Its value is 5.

Question: What about the “ratio SUVmean to background max” value [5, 11] of the same compound?
Answer: Its value is 83.2.

Question: And the “ratio SUVmean to background mean” value [5, 11]?
Answer: The value was 32.4.

Question: What about the “ratio SUVmean to background min” value [5, 11] of the same compound?
Answer: The value was 5.4.

Question: What about the SUVmax max [5, 12] of the same compound?
Answer: Its SUVmax max is 67.5.

Question: And the SUVmax mean [5, 12]?
Answer: Its SUVmax mean is 22.2.

Question: And the SUVmax min [5, 12]?
Answer: The SUVmax min was 8.1.

Question: And the SUVmean max [5, 12]?
Answer: Its SUVmean max is 44.6.

Question: What about the SUVmean mean [5, 12] of the same compound?
Answer: Its SUVmean mean is 16.6.

Question: And the SUVmean min [5, 12]?
Answer: Its SUVmean min is 6.4.

Question: What about the “ratio SUVmax to background max” value [5, 12] of the same compound?
Answer: Its value is 63.6.

Question: And the “ratio SUVmax to background mean” value [5, 12]?
Answer: The value was 23.7.

Question: And the “ratio SUVmax to background min” value [5, 12]?
Answer: The value was 5.8.

Question: What about the “ratio SUVmean to background max” value [5, 12] of the same compound?
Answer: The value was 70.7.

Question: What about the “ratio SUVmean to background mean” value [5, 12] of the same compound?
Answer: Its value is 27.3.

Question: And the “ratio SUVmean to background min” value [5, 12]?
Answer: Its value is 7.1.

Question: What about the SUVmax max [5, 13] of the same compound?
Answer: Its SUVmax max is 95.4.

Question: And the SUVmax mean [5, 13]?
Answer: The SUVmax mean was 26.6.

Question: And the SUVmax min [5, 13]?
Answer: Its SUVmax min is 4.0.

Question: What about the SUVmean max [5, 13] of the same compound?
Answer: The SUVmean max was 71.7.

Question: What about the SUVmean mean [5, 13] of the same compound?
Answer: The SUVmean mean was 19.2.

Question: And the SUVmean min [5, 13]?
Answer: The SUVmean min was 2.7.

Question: What about the “ratio SUVmax to background max” value [5, 13] of the same compound?
Answer: The value was 83.4.

Question: What about the “ratio SUVmax to background mean” value [5, 13] of the same compound?
Answer: Its value is 28.6.

Question: And the “ratio SUVmax to background min” value [5, 13]?
Answer: Its value is 5.0.

Question: What about the “ratio SUVmean to background max” value [5, 13] of the same compound?
Answer: Its value is 83.2.

Question: What about the “ratio SUVmean to background mean” value [5, 13] of the same compound?
Answer: Its value is 31.9.

Question: What about the “ratio SUVmean to background min” value [5, 13] of the same compound?
Answer: Its value is 5.4.

Question: What about the SUVmax max [5, 14] of the same compound?
Answer: The SUVmax max was 32.5.

Question: What about the SUVmax mean [5, 14] of the same compound?
Answer: The SUVmax mean was 26.1.

Question: And the SUVmax min [5, 14]?
Answer: The SUVmax min was 20.4.

Question: What about the SUVmean max [5, 14] of the same compound?
Answer: The SUVmean max was 19.1.

Question: And the SUVmean mean [5, 14]?
Answer: Its SUVmean mean is 17.4.

Question: What about the SUVmean min [5, 14] of the same compound?
Answer: Its SUVmean min is 15.5.

Question: And the “ratio SUVmax to background max” value [5, 14]?
Answer: Its value is 40.6.

Question: And the “ratio SUVmax to background mean” value [5, 14]?
Answer: The value was 28.9.

Question: What about the “ratio SUVmax to background min” value [5, 14] of the same compound?
Answer: Its value is 18.5.

Question: And the “ratio SUVmean to background max” value [5, 14]?
Answer: Its value is 38.2.

Question: What about the “ratio SUVmean to background mean” value [5, 14] of the same compound?
Answer: Its value is 30.2.

Question: What about the “ratio SUVmean to background min” value [5, 14] of the same compound?
Answer: Its value is 22.1.

Question: What about the “uptake in lesion (proof of concept)” value [6] of the same compound?
Answer: Its value is “Uptake typical for recurrent prostate cancer is demonstrated in a 2 mm lymph node”.

Question: And the Internalization ([7]; 18F-L, 0.5 nM, 1 hour, 37° C., % of reference ligand ([125I]I-BA)KuE, mean ± SD)?
Answer: The Internalization was 164.8 ± 4.5%.

Question: And the Internalization ([7]; 177Lu-natF-L, 0.5 nM, 1 hour, 37° C., % of reference ligand ([125I]I-BA)KuE, mean ± SD)?
Answer: The Internalization was 185.8 ± 4.5%.

Question: And the Internalization ([7]; 1 h, 0.0005 µM)?
Answer: The Internalization was 126.0 ± 13.1%.
